{
  "source": "paper PMC5109658",
  "about": "“Antibacterial and cytotoxic cytochalasins from the endophytic fungus Phomopsis sp. harbored in Garcinia kola (Heckel) nut” (BMC Complementary and Alternative Medicine, 2016)",
  "key": {"[1]": {"assay": "MTT cytotoxicity assay", "type": "cell-based", "conditions": "African green monkey, Vero cells, normal non-cancer cells, mean ± SD, read-out: Cytotoxicty (LC50) Vero cells", "description": "(§1) HeLa (Human cervical cancer cell line, ATCC No. CCL-2) and Vero cells (African green monkey kidney cells, normal non-cancer cells, ATCC No. CCL-81), obtained from the American Type Culture Collection (ATCC) were used in this study. Cytotoxic activity was determined using the 3-(4,5-dimethylthiazol-2-yl)-2,5-diphenyltetrazolium bromide (MTT, Sigma, USA) assay reported by Mosmann for the HeLa and Vero cells. This cell viability assay is based on living cell‘s property to transform the MTT dye tetrazolium ring into a purple-colored formazan structure due to the action of mitochondrial and other dehydrogenases inside the cell. The color intensity yielded by the cell population is directly proportional to the number of viable cells, and one can quantify the absorbance measurements using mathematical parameters. Each test sample was dissolved in dimethylsulfoxide (DMSO) to give a stock solution. Compounds 1–3 were prepared from the stock solutions by serial dilution in RPMI 1640 to give a volume of 100 μL in each well of a microtiter plate (96-well). Each well was filled with 100 μL of cells at 2 × 10^5 cells/mL. The assay for each concentration of compound was performed in triplicates and the culture plates were kept at 37 °C with 5% (v/v) CO2 for 24 h. After removing the supernatant of each well and washing twice by PBS, 20 μL of MTT solution (5 mg/mL in PBS) and 100 μL of medium were then introduced. After 4 h of incubation, 100 μL of DMSO were added to each well to dissolve the formazan crystals and the absorbance values at 490 nm were measured with a microplate reader (Bio-RAD 680, USA). The relative cell viability (%) was expressed as a relative percentage of treated cells to the untreated control cells (TC/UC × 100). The rate of cell inhibition was calculated using the following formula: inhibition rate = [1- (ODtest/ODnegative control)] × 100%. The LC50 values were calculated as the concentration of test sample resulting in a 50% reduction of absorbance compared to untreated cells. Cells treated with 5-fluorouridine + RPMI 1640 served as positive control while cells left untreated + 1% (v/v) DMSO + RPMI 1640 were used as negative control."}, "[2]": {"test_system": "V. cholerae CO6", "assay": "Broth microdilution MIC/MBC", "type": "cell-based, Vibrio cholerae", "description": "(§2) A total of six bacterial strains were tested for their susceptibility to compounds and these strains were taken from our laboratory collection (kindly provided by Dr. T. Ramamurthy, NICED, Kolkata). Among the clinical strains of Vibrio cholerae used in this study, strains NB2 and SG24 and CO6 belonged to O1 and O139 serotypes, respectively. […]. The other strains used in this study were V. cholerae non-O1, non-O139 (strain PC2); […]. The American Type Culture Collection (ATCC) strain, Staphylococcus aureus ATCC 25923, was used for quality control. The bacterial strains were maintained on agar slant at 4 °C and subcultured on a fresh appropriate agar plates 24 h prior to any antibacterial test. The Mueller Hinton Agar (MHA) was used for the activation of bacteria. The Mueller Hinton Broth (MHB) and nutrient agar (Hi-Media) were used for the MIC and MBC determinations respectively.\n(§3) Suspensions of bacteria were prepared in MHB from cells arrested during their logarithmic phase growth (4 h) on MHB at 37 °C. The turbidity of the microbial suspension was read spectrophotometrically at 600 nm and adjusted to an OD of 0.1 with MHB, which is equivalent to 1 × 10^8 CFU/mL. From this prepared solution, other dilutions were made with MHB to yield 1x10^6 CFU/mL.\n(§4) MIC and MBC of compounds 1–3 were assessed using the broth microdilution method recommended by the National Committee for Clinical Laboratory Standards with slight modifications. Each test sample was dissolved in dimethylsulfoxide (DMSO) to give a stock solution. The 96-well round bottom sterile plates were prepared by dispensing 180 μL of the inoculated broth (1x10^6 CFU/mL) into each well. A 20 μL aliquot of the stock solution of compound was added. The concentrations of sample tested were 0.125, 0.25, 0.50, 1, 2, 4, 8, 16, 32, 64, 128, 256 and 512 μg/mL. […] Dilutions of tetracycline and ampicillin served as positive controls, while broth with 20 μL of DMSO was used as negative control. The ATCC strain Staphylococcus aureus ATCC 25923 was included for quality assurance purposes. Plates were covered and incubated for 24 h at 37 °C. After incubation, minimum inhibitory concentrations (MIC) were read visually; all wells were plated to nutrient agar (Hi-Media) and incubated. The minimal bactericidal concentration (MBC) was defined as a 99.9% reduction in CFU from the starting inoculums after 24 h incubation interval."}, "[3]": {"test_system": "V. cholerae SG24", "assay": "Broth microdilution MIC/MBC", "type": "cell-based, Vibrio cholerae", "conditions": "Vibrio cholerae", "description": "as §2, §3, §4"}, "[4]": {"test_system": "V. cholerae NB2", "assay": "Broth microdilution MIC/MBC", "type": "cell-based, Vibrio cholerae", "description": "as §2, §3, §4"}, "[5]": {"test_system": "V. cholerae PC2", "assay": "Broth microdilution MIC/MBC", "type": "cell-based, Vibrio cholerae", "conditions": "Vibrio cholerae, V. cholerae PC2", "description": "as §2, §3, §4"}, "[6]": {"test_system": "S. aureus ATCC 25923", "assay": "Broth microdilution MIC/MBC", "type": "cell-based, Staphylococcus aureus", "description": "as §2, §3, §4"}, "[7]": {"test_system": "S. flexneri SDINT", "assay": "Broth microdilution MIC/MBC", "type": "cell-based, Shigella flexneri", "description": "as §2, §3, §4"}, "[8]": {"assay": "Hemolytic assay", "type": "cell-based", "conditions": "male, 1% human red blood cell suspension, 512 μg/mL (highest concentration tested), 1% human red blood cells, PBS pH 7.4, 37 °C", "description": "Whole blood (10 mL) from a healthy person was collected into a conical tube containing heparin as an anticoagulant. Erythrocytes were harvested by centrifugation at room temperature for 10 min at 1,000 × g and were washed three times in PBS solution. The top layer (plasma) and the next, milky layer (buffy coat with a layer of platelets on top of it) were then carefully aspirated and discarded. The cell pellet was resuspended in 10 mL of PBS solution and mixed by gentle aspiration with a Pasteur pipette. This cell suspension was used immediately.\nFor the normal human red blood cells, which were in suspension, the cytotoxicity was evaluated as previously described. Compounds 1–3, at concentrations ranging from 32 to 512 μg/mL, were incubated with an equal volume of 1% human red blood cells in phosphate buffered saline (10 mM PBS, pH 7.4) at 37 °C for 1 h. Tetracycline was tested simultaneously. Non-hemolytic and 100% hemolytic controls were the buffer alone and the buffer containing 1% Triton X-100, respectively. Cell lysis was monitored by measuring the release of hemoglobin at 595 nm with a spectrophotometer (Thermo Scientific, USA). Percent hemolysis was calculated as follows: [(A595 of sample treated with compound - A595 of sample treated with buffer)/(A595 of sample treated with Triton X-100 – A595 of sample treated with buffer)] x 100."}, "[9]": {"test_system": "studied microorganisms (six bacterial strains)", "assay": "Antibacterial spectrum over the six tested strains (broth microdilution)", "type": "cell-based", "conditions": "out of 6 strains; concentrations up to 512 μg/mL", "description": "as §2, §4"}, "[10]": {"assay": "MTT cytotoxicity assay", "type": "cell-based, Human", "conditions": "human, HeLa cells; MTT, 24 h, mean ± SD; read-out: Cytotoxicty (LC50) HeLa cells", "description": "as §1"}, "[11]": {"test_system": "HeLa cells", "assay": "MTT cytotoxicity assay", "type": "cell-based, Human", "conditions": "SI = LC50 on Vero cells / LC50 on HeLa cells", "description": "as §1"}, "[12]": {"conditions": "99.9% reduction in CFU after 24 h"}},
  "note": "Like-named read-outs stand apart in the source and are kept apart here.",
  "data": [
    {"smiles": "C=C1[C@@H](C)C2[C@H](Cc3ccccc3)NC(=O)[C@@]23C(/C=C/C[C@H](C)C[C@@](C)(O)/C=C/[C@H]3O)[C@@H]1O", "note": "(stereo partly shown) [Compound 3, cytochalasin J]", "values": [
      {"measurement": "CC50 at 24 h", "setting": "[1]", "value": "73.9 ± 0.92", "unit": "µg/mL"},
      {"measurement": "Selectivity Index V. cholerae CO6", "setting": "[2]; SI = LC50 on Vero cells / MIC", "value": 0.14},
      {"measurement": "MBC/MIC", "setting": "[2]; V. cholerae CO6", "value": 1},
      {"measurement": "MBC", "setting": "[2]; Vibrio cholerae, V. cholerae CO6, 99.9% reduction in CFU after 24 h", "value": 512, "unit": "µg/mL"},
      {"measurement": "MIC", "setting": "[2]; Vibrio cholerae, V. cholerae CO6, 24 h at 37 °C", "value": 512, "unit": "µg/mL"},
      {"measurement": "MBC", "setting": "[3]; [12]", "value": "> 512", "unit": "µg/mL"},
      {"measurement": "MIC", "setting": "[3]; 24 h at 37 °C", "value": "> 512", "unit": "µg/mL"},
      {"measurement": "Selectivity Index V. cholerae NB2", "setting": "[4]; SI = LC50 on Vero cells / MIC", "value": 0.14},
      {"measurement": "MBC/MIC", "setting": "[4]; V. cholerae NB2", "value": 1},
      {"measurement": "MBC", "setting": "[4]; Vibrio cholerae, V. cholerae NB2, 99.9% reduction in CFU after 24 h", "value": 512, "unit": "µg/mL"},
      {"measurement": "MIC", "setting": "[4]; Vibrio cholerae, V. cholerae NB2, 24 h at 37 °C, read-out: MIC", "value": 512, "unit": "µg/mL"},
      {"measurement": "MBC", "setting": "[5]; [12]", "value": "> 512", "unit": "µg/mL"},
      {"measurement": "MIC", "setting": "[5]; 24 h at 37 °C, read-out: MIC", "value": "> 512", "unit": "µg/mL"},
      {"measurement": "MBC/MIC", "setting": "[6]; S. aureus ATCC 25923", "value": 1},
      {"measurement": "Selectivity Index S. aureus ATCC 25923", "setting": "[6]; SI = LC50 on Vero cells / MIC", "value": 0.14},
      {"measurement": "MBC", "setting": "[6]; Staphylococcus aureus, ATCC25923, S. aureus ATCC 25923, 99.9% reduction in CFU after 24 h", "value": 512, "unit": "µg/mL"},
      {"measurement": "MIC", "setting": "[6]; Staphylococcus aureus, ATCC25923, S. aureus ATCC 25923, 24 h at 37 °C", "value": 512, "unit": "µg/mL"},
      {"measurement": "MBC/MIC", "setting": "[7]; S. flexneri SDINT", "value": 1},
      {"measurement": "Selectivity Index S. flexneri SDINT", "setting": "[7]; SI = LC50 on Vero cells / MIC", "value": 0.57},
      {"measurement": "MBC", "setting": "[7]; Shigella flexneri, S. flexneri SDINT, 99.9% reduction in CFU after 24 h", "value": 128, "unit": "µg/mL"},
      {"measurement": "MIC", "setting": "[7]; Shigella flexneri, S. flexneri SDINT, 24 h at 37 °C, read-out: MIC", "value": 128, "unit": "µg/mL"},
      {"measurement": "hemolysis at 1 h, 512 μg/mL", "setting": "[8]", "value": "< 10", "unit": "%"},
      {"measurement": "share of the studied microorganisms on which inhibitory effects were noted", "setting": "[9]", "value": 66.66, "unit": "%"},
      {"measurement": "CC50 at 24 h", "setting": "[10]", "value": "3.66 ± 0.33", "unit": "µg/mL"},
      {"measurement": "Selectivity Index HeLa cells", "setting": "[11]", "value": 20.18}
    ]}
  ]
}
